Assay results reported in US20190298796A1, “Therapeutic Compositions from the Brevinin-1 Family of Peptides and Uses Thereof” (priority 2016, published 2019).
Values after ≈ are worked out from the molar mass of the structure shown. Residues, ends and D or L forms follow the SMILES beside them.

Legend:
gram-negative bacteria = assay: MIC range over the tested gram-negative bacteria; format: cell-based
From the text: (§1) Antimicrobial activity: Broth dilution method [39] was used to assess the antimicrobial activity of the peptides. Bacterial strains used for in vitro antibacterial assay were Staphylococcus aureus (MTCC 9542), Bacillus subtilis (MTCC 14416), Bacillus coagulans (ATCC 7050), Methicillin-resistant Staphylococcus aureus (MRSA) (ATCC 43300), Streptococcus mutans (MTCC 497), Streptococcus gordonii (MTCC 2695), Vibrio cholerae (MCV09), Escherichia coli (ATCC 25922), Vancomycin-resistant enterococcus (VRE) (ATCC 29212) and gram-negative fish pathogens Aeromonas hydrophila (ATCC 7966) and Aeromonas sobria (ATCC 43979). Bacterial cultures were grown in Muller Hinton broth (MHB) (Hi-media) by overnight incubation at 37° C. with constant shaking. Microbial cultures having 10^6 CFU/ml were made from OD600: 0.6 cultures. 400 μM stock solutions of peptides were prepared in autoclaved double distilled water and diluted in MHB to make concentrations ranging from 0.7 to 100 μM. Bacterial inoculum without peptide was used as the negative control.

[1] = tested on: Bacillus coagulans ATCC 7050; format: cell-based; details: lowest concentration killing entire bacteria, 24 hrs
From the text: as §1

human erythrocytes = format: cell-based; details: 60 min, at the peptide's MIC for Staphylococcus aureus MTCC 9542 (MIC in parenthesis)
Protocol: Hemolytic Activity: Hemolytic assay was carried out as previously described. Briefly, 10% (v/v) suspensions of fresh human erythrocytes in phosphate buffered saline (pH 7.2) were incubated with different concentrations (100 μM-0.7 μM) of B1/1 COOH & B1/2 COOH, B1/1 CONH2 & B1/2 CONH2 and cyclic B1/1 CONH2 & cyclic B1/2 CONH2 and incubated at 3^7° C. for 60 min. The cells were centrifuged (3000×g) for 5 min, and absorbance of the supernatant was measured at 595 nm. Hemolysis caused by 10% Triton X-100 was taken as positive control. Percentage hemolysis was calculated by measuring the mean amount of hemoglobin released as a result of lysis of erythrocyte from three independent experiments.

VRE ATCC 29212 = details: lowest concentration killing entire bacteria, 24 hrs
From the text: as §1

[2] = tested on: Staphylococcus aureus MTCC 9542; format: cell-based; details: lowest peptide concentration required to kill entire bacteria, 24 hrs, NA = not active up to the highest concentration tested
From the text: as §1

MRSA ATCC 43300 = format: cell-based, Methicillin-resistant Staphylococcus aureus; details: lowest concentration killing entire bacteria, 24 hrs
From the text: as §1

[3] = tested on: Bacillus subtilis MTCC 14416; format: cell-based; details: lowest concentration killing entire bacteria, 24 hrs
From the text: as §1

## CC[C@H](C)[C@H](NC(=O)CNC(=O)[C@@H]1CCCN1C(=O)[C@H](Cc1ccccc1)NC(=O)[C@@H](N)Cc1ccccc1)C(=O)N[C@H](C(=O)N[C@@H](CCCCN)C(=O)N[C@H](C(=O)N[C@@H](C)C(=O)NCC(=O)N[C@@H](C)C(=O)N[C@H](C(=O)N[C@@H](CC(C)C)C(=O)N1CCC[C@H]1C(=O)N[C@H](C(=O)N[C@@H](C)C(=O)N[C@H](C(=O)N[C@@H](CS)C(=O)N[C@@H](C)C(=O)N[C@H](C(=O)N[C@H](C(=O)N[C@@H](CCCCN)C(=O)N[C@@H](CCCNC(=N)N)C(=O)N[C@@H](CS)C(=O)O)[C@@H](C)O)[C@@H](C)CC)[C@@H](C)CC)[C@@H](C)O)[C@@H](C)CC)C(C)C)[C@@H](C)CC [B1/2 COOH] (H-FFPGIIKVAGAILPTAICAITKRC-OH; N-terminus assumed)
gram-negative bacteria
  Activity against gram-negative bacteria (MIC range): not with gram-negative bacteria
[1]
  MIC: 25 µM (≈ 62.6 µg/mL)
Human erythrocytes
  Percentage hemolysis at MIC: 25%
VRE ATCC 29212
  MIC: 50 µM (≈ 125 µg/mL)
[2]
  MIC: 12.5 µM (≈ 31.3 µg/mL)
MRSA ATCC 43300
  MIC: 30 µM (≈ 75.1 µg/mL)
[3]
  MIC: 67.5 µM (≈ 169 µg/mL)
